Test results reported in ChEMBL document CHEMBL4609984, “Design, synthesis and biological evaluation of imidazole and oxazole fragments as HIV-1 integrase-LEDGF/p75 disruptors and inhibitors of microbial pathogens” (Bioorg Med Chem, 2020).
Values after ≈ are worked out from the molar mass of the structure shown. Active and inactive are the calls of the source. The rule behind the calls is not given here.

Columns and labels:
[1] = biological target: Human immunodeficiency virus type 1 integrase (Human immunodeficiency virus 1) (UniProt Q7ZJM1); assay: Inhibition of HIV-1 integrase assessed as inhibition of interaction of HIV-1 IN with LEDGF/p75 (unknown origin) at 10 uM preincubated with enzyme for 30 mins followed by further incubation with LEDGF/p75 for 1 hr by Alphascreen assay relative to control
Human immunodeficiency virus type 1 integrase (Human immunodeficiency virus 1), sequence (Q7ZJM1 as listed by the source): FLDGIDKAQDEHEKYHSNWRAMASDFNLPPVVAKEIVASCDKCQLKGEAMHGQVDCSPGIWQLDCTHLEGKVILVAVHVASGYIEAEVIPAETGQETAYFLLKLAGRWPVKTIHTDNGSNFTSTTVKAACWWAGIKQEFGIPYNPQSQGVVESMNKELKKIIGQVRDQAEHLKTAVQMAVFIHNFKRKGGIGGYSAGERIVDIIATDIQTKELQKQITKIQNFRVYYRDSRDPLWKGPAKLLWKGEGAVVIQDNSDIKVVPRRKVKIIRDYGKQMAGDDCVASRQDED

MT4 = assay: Cytotoxicity against human MT4 cells assessed as reduction in cell viability at 10 uM incubated for 5 days by MTS assay; type: cell-based; details: mt4, 120 h
Bacillus cereus = assay: Antibacterial activity against Bacillus cereus ATCC 11779 assessed as reduction in bacterial growth incubated for 24 hrs by INT dye based assay; type: functional; details: ATCC 11779, 24 h
Escherichia coli = assay: Antibacterial activity against Escherichia coli ATCC 8739 assessed as reduction in bacterial growth incubated for 24 hrs by INT dye based assay; type: functional; details: ATCC 8739, 24 h
Pseudomonas aeruginosa = assay: Antibacterial activity against Pseudomonas aeruginosa ATCC 27858 assessed as reduction in bacterial growth incubated for 24 hrs by INT dye based assay; type: functional; details: ATCC 27858, 24 h
Staphylococcus aureus = assay: Antibacterial activity against Staphylococcus aureus ATCC 25923 assessed as reduction in bacterial growth incubated for 24 hrs by INT dye based assay; type: functional; details: ATCC 25923, 24 h
Candida tropicalis = assay: Antimicrobial activity against Candida tropicalis ATCC 750 assessed as reduction in fungal growth incubated for 48 hrs by INT dye based assay; type: functional
[2] = biological target: Human immunodeficiency virus type 1 integrase (Human immunodeficiency virus 1, UniProt Q7ZJM1); assay: Inhibition of HIV-1 integrase assessed as inhibition of interaction of HIV-1 IN with LEDGF/p75 (unknown origin) preincubated with enzyme for 30 mins followed by further incubation with LEDGF/p75 for 1 hr by Alphascreen assay
Human immunodeficiency virus type 1 integrase, sequence (Q7ZJM1 whole entry): as the sequence (Q7ZJM1 as listed by the source) above

[3] = biological target: Human immunodeficiency virus type 1 integrase (Human immunodeficiency virus 1) (UniProt Q7ZJM1); assay: Inhibition of HIV-1 integrase assessed as inhibition of interaction of HIV-1 IN with LEDGF/p75 (unknown origin) at 10 uM incubated for 1 hr by Alphascreen TruHits counter assay
[4] = Cytotoxicity against human MT4 cells assessed as reduction in cell viability incubated for 5 days by MTS assay; type: cell-based
[5] = tested on: Human immunodeficiency virus 1; assay: Antiviral activity against HIV-1 NL4-3 infected in human MT4 cells assessed as reduction in p24 gag protein at 10 uM incubated for 5 days by ELISA; type: functional, organism-based
[6] = tested on: Human immunodeficiency virus 1; assay: Antiviral activity against HIV-1 NL4-3 infected in human MT4 cells assessed as reduction in p24 gag protein incubated for 5 days by ELISA; type: functional, organism-based; details: Human immunodeficiency virus 1, NL4-3, MT4, 120 h

| Compound | inhibition [1] [%] | Activity (MT4) | other results |
| --- | --- | --- | --- |
| CCCCn1cncc1-c1ccc2c(c1)OCCO2 | 21 | Non-Toxic | – |
| CCCCn1cncc1-c1ccccc1[N+](=O)[O-] | 30 | Non-Toxic | – |
| CCCCn1cncc1-c1ccc2c(c1)OCO2 | 35 | Non-Toxic | MIC (Bacillus cereus): 31.3 µg/mL (≈ 128 µM); MIC (Escherichia coli): > 250 µg/mL; MIC (Pseudomonas aeruginosa): > 250 µg/mL |
| O=[N+]([O-])c1ccccc1-c1cnco1 | 30 | Non-Toxic | – |
| Fc1ccc(-c2cncn2C2CCCCC2)cc1 | 45 | Non-Toxic | – |
| COc1ccc(-c2cncn2Cc2ccccc2)c(OC)c1 | 17 | Non-Toxic | MIC (Staphylococcus aureus): 62.5 µg/mL (≈ 212 µM); MIC (Bacillus cereus): 125 µg/mL (≈ 425 µM); MIC (Escherichia coli): > 250 µg/mL; MIC (Pseudomonas aeruginosa): > 250 µg/mL; MIC (Candida tropicalis; ATCC 750, 48 h): 250 µg/mL (≈ 849 µM) |
| COc1cccc(-c2cncn2C2CCCCC2)c1 | 55 | Non-Toxic | IC50 [2]: 21.9 µM; inhibition [3]: Active; CC50 at 120 h [4]: 27.7 µM; Activity [5]: inactive; EC50 [6]: > 10 µM; MIC (Staphylococcus aureus): 62.5 µg/mL (≈ 244 µM); MIC (Bacillus cereus): 62.5 µg/mL (≈ 244 µM); MIC (Escherichia coli): > 250 µg/mL; MIC (Pseudomonas aeruginosa): > 250 µg/mL; MIC (Candida tropicalis; ATCC 750, 48 h): 62.5 µg/mL (≈ 244 µM) |
| Cc1ccc(S(=O)(=O)[C@H]2N=CO[C@@H]2c2ccccc2)cc1 (racemic) | 34 | Non-Toxic | – |
| CC(C)(C)c1ccc(-c2cnco2)cc1 | 35 | Non-Toxic | – |
| COc1ccc(-c2cnco2)c(OC)c1 | 42 | Non-Toxic | – |
| Fc1ccc(-c2cncn2-c2ccc(Br)cc2)cc1 | 52 | Non-Toxic | IC50 [2]: 25.1 µM; inhibition [3]: Active; CC50 at 120 h [4]: 48 µM; Activity [5]: inactive; EC50 [6]: > 10 µM |
| COc1ccc(-c2cncn2C2CCCCC2)c(OC)c1 | 40 | Non-Toxic | MIC (Staphylococcus aureus): 62.5 µg/mL (≈ 218 µM); MIC (Bacillus cereus): 250 µg/mL (≈ 873 µM); MIC (Escherichia coli): > 250 µg/mL; MIC (Pseudomonas aeruginosa): > 250 µg/mL; MIC (Candida tropicalis; ATCC 750, 48 h): 125 µg/mL (≈ 436 µM) |
| COc1cccc(-c2cncn2Cc2ccccc2)c1 | 21 | Non-Toxic | – |
| Cc1ccc(S(=O)(=O)[C@H]2N=CO[C@@H]2c2ccc3c(c2)OCO3)cc1 (racemic) | 33 | Non-Toxic | – |
| COc1ccc(-c2cncn2-c2ccc(Br)cc2)c(OC)c1 | 52 | Non-Toxic | IC50 [2]: 7 µM; inhibition [3]: Active; CC50 at 120 h [4]: 55.5 µM; Activity [5]: inactive; EC50 [6]: > 10 µM |
| c1ncc(-c2ccc3c(c2)OCO3)o1 | 35 | Non-Toxic | – |
| O=[N+]([O-])c1ccc(-c2cncn2C2CCCCC2)cc1 | – | Non-Toxic | – |
| Cc1ccc(S(=O)(=O)[C@H]2N=CO[C@@H]2c2ccccc2[N+](=O)[O-])cc1 (racemic) | 38 | Non-Toxic | – |
| Clc1ccccc1-c1cnco1 | 33 | Non-Toxic | – |
| Fc1ccc(-c2cnco2)cc1 | 23 | Non-Toxic | – |
| CCCCn1cncc1-c1ccc(C(C)(C)C)cc1 | 56 | Non-Toxic | IC50 [2]: 22.4 µM; inhibition [3]: Active; CC50 at 120 h [4]: 23.9 µM; Activity [5]: inactive; EC50 [6]: > 10 µM; MIC (Staphylococcus aureus): 15.6 µg/mL (≈ 60.8 µM); MIC (Bacillus cereus): 31.3 µg/mL (≈ 122 µM); MIC (Escherichia coli): 250 µg/mL (≈ 975 µM); MIC (Pseudomonas aeruginosa): 250 µg/mL (≈ 975 µM); MIC (Candida tropicalis; ATCC 750, 48 h): 31.3 µg/mL (≈ 122 µM) |

| Compound | inhibition [1] [%] | Activity (MT4) | other results |
| --- | --- | --- | --- |
| Fc1ccc(-c2cncn2C2CC2)cc1 | 31 | Non-Toxic | – |
| COc1cccc(-c2cnco2)c1 | 33 | Non-Toxic | – |
| O=C(O)c1cn(C2CC2)c2cc(N3CCNCC3)c(F)cc2c1=O [CIPROFLOXACIN] | – | – | MIC (Staphylococcus aureus): 0.156 µg/mL (≈ 0.471 µM); MIC (Bacillus cereus): 0.156 µg/mL (≈ 0.471 µM); MIC (Escherichia coli): 0.313 µg/mL (≈ 0.945 µM); MIC (Pseudomonas aeruginosa): 0.313 µg/mL (≈ 0.945 µM) |
| c1ccc(Cn2cncc2-c2ccc3c(c2)OCO3)cc1 | 43 | Non-Toxic | – |
| O=[N+]([O-])c1ccccc1-c1cncn1C1CCCCC1 | – | Non-Toxic | – |
| c1cc2c(cc1-c1cncn1C1CCCCC1)OCO2 | 40 | Non-Toxic | – |
| CCCCn1cncc1-c1ccccc1Cl | 37 | Non-Toxic | – |
| COc1ccc(-c2cncn2C2CC2)c(OC)c1 | 28 | Non-Toxic | – |
| CCCCn1cncc1-c1ccc(OC)cc1OC | 26 | Non-Toxic | – |
| c1ccc(-c2cnco2)cc1 | 31 | Non-Toxic | – |
| NYSTATIN | – | – | MIC (Candida tropicalis): 1.25 µg/mL |
| O=[N+]([O-])c1ccc(-c2cnco2)cc1 | 33 | Non-Toxic | – |
| CCCCn1cncc1-c1ccc([N+](=O)[O-])cc1 | 27 | Non-Toxic | – |
| CC(C)(C)c1ccc(-c2cncn2C2CCCCC2)cc1 | 62 | Non-Toxic | IC50 [2]: 14.6 µM; inhibition [3]: Active; CC50 at 120 h [4]: 21.8 µM; Activity [5]: inactive; EC50 [6]: > 10 µM; MIC (Staphylococcus aureus): 62.5 µg/mL (≈ 221 µM); MIC (Bacillus cereus): 15.6 µg/mL (≈ 55.2 µM); MIC (Escherichia coli): > 250 µg/mL; MIC (Pseudomonas aeruginosa): > 250 µg/mL; MIC (Candida tropicalis; ATCC 750, 48 h): 31.3 µg/mL (≈ 111 µM) |
| CCCCn1cncc1-c1cccc(OC)c1 | 51 | Non-Toxic | IC50 [2]: 30.5 µM; inhibition [3]: Active; CC50 at 120 h [4]: 29.6 µM; Activity [5]: inactive; EC50 [6]: > 10 µM; MIC (Staphylococcus aureus): > 250 µg/mL; MIC (Bacillus cereus): 62.5 µg/mL (≈ 271 µM); MIC (Escherichia coli): 125 µg/mL (≈ 543 µM); MIC (Pseudomonas aeruginosa): > 250 µg/mL; MIC (Candida tropicalis; ATCC 750, 48 h): 62.5 µg/mL (≈ 271 µM) |
| Brc1ccc(-n2cncc2-c2ccc3c(c2)OCO3)cc1 | 48 | Non-Toxic | – |
| COc1cccc(-c2cncn2C2CC2)c1 | 40 | Non-Toxic | – |
| CCCCn1cncc1-c1ccc(F)cc1 | 30 | Non-Toxic | – |
| Fc1ccc(-c2cncn2Cc2ccccc2)cc1 | 25 | Non-Toxic | MIC (Staphylococcus aureus): 62.5 µg/mL (≈ 248 µM); MIC (Bacillus cereus): 125 µg/mL (≈ 495 µM); MIC (Escherichia coli): > 250 µg/mL; MIC (Pseudomonas aeruginosa): > 250 µg/mL; MIC (Candida tropicalis; ATCC 750, 48 h): > 250 µg/mL |
| Clc1ccccc1-c1cncn1C1CCCCC1 | 31 | Non-Toxic | – |
